In US20210347780A1, “CDPK1 INHIBITORS, COMPOSITIONS, AND METHODS RELATED THERETO” (Vyera Pharmaceuticals, LLC, priority 2018, published 2021):

Target: T1, T. gondii CDPK1 (tgCDPK1) (Toxoplasma gondii, UniProt Q9BJF5)
T1 sequence (Q9BJF5 1-507): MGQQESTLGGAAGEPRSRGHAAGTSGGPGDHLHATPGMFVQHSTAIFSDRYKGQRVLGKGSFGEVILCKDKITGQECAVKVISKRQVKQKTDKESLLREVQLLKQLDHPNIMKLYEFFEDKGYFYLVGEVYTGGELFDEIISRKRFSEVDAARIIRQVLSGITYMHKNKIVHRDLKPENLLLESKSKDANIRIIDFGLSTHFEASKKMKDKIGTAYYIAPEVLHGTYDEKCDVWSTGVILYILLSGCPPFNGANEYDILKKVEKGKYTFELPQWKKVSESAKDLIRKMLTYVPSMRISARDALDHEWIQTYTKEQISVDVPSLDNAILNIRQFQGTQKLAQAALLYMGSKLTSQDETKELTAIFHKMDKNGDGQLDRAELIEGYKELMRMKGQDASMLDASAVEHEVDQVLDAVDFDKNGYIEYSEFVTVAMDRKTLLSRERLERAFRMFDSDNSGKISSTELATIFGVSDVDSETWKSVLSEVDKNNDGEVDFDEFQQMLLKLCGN
Assay: biochemical
Details: inhibition of T. gondii CDPK1; at least three independent replicates; read-out: tgCDPK1 IC50
Experimental: Certain of the compounds prepared as described above were assayed to determine their IC50 for inhibition of T. gondii CDPK1 (tgCDPK1). At least three independent replicates of the assay were conducted for each compound tested.

| Structure (SMILES) | IC50 [nM] |
| --- | --- |
| COC1CCCCC1n1nc(Oc2cc(C(F)(F)F)ccn2)c2c(N)ncnc21 (stereo not drawn) [Compound 236] | 85.6 |
| Nc1ncnc2c1c(Oc1cc(C(F)(F)F)ccn1)nn2C1CCOCC1 [Compound 198] | 29.4 |
| Nc1ncnc2c1c(Oc1cc(C(F)(F)F)ccn1)nn2C1CCC(O)C1 (stereo not drawn) [Compound 230] | 24.2 |
| Nc1ncnc2c1c(Oc1cccc(Cl)c1)nn2Cc1cc[nH]c1 [Compound 247] | 19.4 |
| Nc1ncnc2c1c(Oc1cc(C(F)(F)F)ccn1)nn2[C@H]1CC[C@H](O)CC1 [Compound 235] | 15.9 |
| Nc1ncnc2c1c(Oc1cc(C(F)(F)F)ccn1)nn2[C@H]1CC[C@@H](N)CC1 [Compound 239] | 23.1 |
| Nc1ncnc2c1c(Oc1cc(C(F)(F)F)ccn1)nn2CC1CC(O)C1 (stereo not drawn) [Compound 273] | 35.8 |
| CC(C)(C)n1nc(Cc2c[nH]c3ccccc23)c2c(N)ncnc21 [Compound 254] | 9 |
| Nc1ncnc2c1c(Cc1c[nH]c3ccc(F)cc13)nn2[C@H]1C[C@H](F)C1 [Compound 157] | 11 |
| Nc1ncnc2c1c(Oc1cc(C(F)(F)F)ccn1)nn2C1CCCCC1 [Compound 200] | 14.7 |
| Nc1ncnc2c1c(Oc1cc(C(F)(F)F)ccn1)nn2C1CCCCC1(F)F (stereo not drawn) [Compound 279] | 35.7 |
| Nc1ncnc2c1c(Oc1cc(O)ccn1)nn2[C@@H]1CCCC[C@@H]1O (single isomer, unassigned) [Compound 284] | 39.2 |
| NC(=O)c1ccnc(Oc2nn([C@H]3CC[C@@H](C(F)(F)F)CC3)c3ncnc(N)c23)c1 [Compound 208] | 90.1 |
| Nc1ncnc2c1c(Cc1cccc(F)c1)nn2[C@H]1C[C@H](F)C1 [Compound 161] | 14.2 |
| COc1ccnc(Oc2nn([C@H]3C[C@H](F)C3)c3ncnc(N)c23)c1 [Compound 175] | 17.4 |
| Nc1ncnc2c1c(Cc1cccc(C(F)(F)F)c1)nn2[C@H]1C[C@H](O)C1 [Compound 125] | 36 |
| Nc1ncnc2c1c(Oc1cc(C(F)(F)F)ccn1)nn2C1(C(F)(F)F)CCC1 [Compound 272] | 20.7 |
| Nc1ncnc2c1c(Oc1cc(C(F)(F)F)ccn1)nn2CC1CCB(O)O1 (stereo not drawn) [Compound 269] | 28.6 |
| Nc1ncnc2c1c(Oc1cc(Cl)ccn1)nn2C1CCCNC1 (stereo not drawn) [Compound 222] | 24.6 |
| Nc1ncnc2c1c(Oc1cc(Cl)ccn1)nn2C1CCCNC1 (stereo not drawn) [Compound 189] | ~24 |
| Nc1ncnc2c1c(Oc1cccc(C(F)(F)F)c1)nn2[C@H]1C[C@H](O)C1 [Compound 179] | 47.9 |
| Nc1ncnc2c1c(Oc1cc(C(F)(F)F)ccn1)nn2C1CCOC1 (stereo not drawn) [Compound 193] | 47.7 |
| CC(C)(C)OC(=O)N[C@H]1CC[C@@H](n2nc(Oc3cc(C(F)(F)F)ccn3)c3c(N)ncnc32)C1 [Compound 240] | 12.1 |
| Nc1ncnc2c1c(Oc1cc(C(F)(F)F)ccn1)nn2[C@H]1CC[C@@H](CO)CC1 [Compound 242] | 15.1 |
| Nc1ncnc2[nH]nc(Oc3cccc(Cl)c3)c12 [Compound 252] | 77.3 |

| Structure (SMILES) | IC50 [nM] |
| --- | --- |
| Nc1ncnc2c1c(Oc1cc(O)ccn1)nn2[C@H]1CCCC[C@@H]1O [Compound 278] | 18.9 |
| Nc1ncnc2c1c(Oc1cc(C(F)(F)F)ccn1)nn2CC1CC(B(O)O)C1 (stereo not drawn) [Compound 270] | 28.7 |
| Nc1ncnc2c1c(Oc1cc(C3CC3)ccn1)nn2C1CC1 [Compound 165] | 28.9 |
| Nc1ncnc2c1c(Oc1cc(Cl)ccn1)nn2[C@H]1C[C@H](O)C1 [Compound 116] | 15.4 |
| Nc1ncnc2c1c(Oc1cc(O)ccn1)nn2C1CC(F)C1 (stereo not drawn) [Compound 290] | 8.7 |
| Nc1ncnc2c1c(Oc1cc(C(F)(F)F)ccn1)nn2[C@@H]1CCCC[C@H]1O (racemic) [191 trans (rac)] | 25 |
| CC(C)(C)n1nc(Cc2cccc(C#N)c2)c2c(N)ncnc21 [Compound 255] | 13.4 |
| CC(C)(C)OC(=O)N1CCC(Cn2nc(Oc3cc(Cl)ccn3)c3c(N)ncnc32)C(F)(F)C1 (stereo not drawn) [Compound 212] | 31.2 |
| Nc1ncnc2c1c(Oc1cc(C(F)(F)F)ccn1)nn2CC1CC1 [Compound 186] | 22.4 |
| Nc1ncnc2c1c(Oc1cc(C(F)(F)F)ccn1)nn2[C@H]1COC[C@@H](N)C1 [Compound 249] | 55 |
| Nc1ncnc2c1c(Oc1cc(Cl)ccn1)nn2CC1CC1 [Compound 225] | 9 |
| N#Cc1ccnc(Oc2nn(CC3CCNCC3(F)F)c3ncnc(N)c23)c1 (stereo not drawn) [Compound 263] | 39.2 |
| Nc1ncnc2c1c(Oc1cc(C(F)(F)F)ccn1)nn2C1CC2CNC1C2 (stereo not drawn) [Compound 234] | 76.7 |
| COc1ccnc(Oc2nn(C3CCC3)c3ncnc(N)c23)c1 [Compound 112, 1-cyclobuty1-3-((4-methoxypyridin-2-yl)oxy)-1H-pyrazolo[3,4-d]pyrimidin-4-amine] | 14.6 |
| NC(=O)c1ccnc(Oc2nn(C3CCCCC3)c3ncnc(N)c23)c1 [Compound 205] | 26.8 |
| Nc1ncnc2c1c(Oc1cc(CO)ccn1)nn2C1CC1 [Compound 86, (2-((4-amino-1-cyclopropyl-1H-pyrazole[3,4-d]pyrimidin-3-yl)oxy)pyridin-4-yl)methanol] | 29.6 |
| Nc1ncnc2c1c(Oc1cc(C(F)(F)F)ccn1)nn2[C@H]1CC[C@H](CO)CC1 [Compound 243] | 10.3 |
| Nc1ncnc2c1c(Oc1cc(C(F)(F)F)ccn1)nn2[C@H]1COC[C@H](N)C1 [Compound 248] | 60.7 |
| Nc1ncnc2c1c(Oc1cccc(Cl)c1)nn2[C@H]1C[C@@H](O)C1 [Compound 152] | 27.3 |
| Nc1ncnc2c1c(Oc1cc(O)ccn1)nn2C1CCC(F)(F)CC1 [Compound 187, 2-((4-amino-1-(4,4-difluorocyclohexyl)-1H-pyrazolo[3,4-d]pyrimidin-3-yl)oxy)pyridin-4-ol] | 10 |
| CC(C)(C)n1nc(Oc2cc(Cl)ccn2)c2c(N)ncnc21 [Compound 262] | 12 |
| Nc1ncnc2c1c(Oc1cc(C(F)(F)F)ccn1)nn2[C@@H]1CC[C@H](N)C1 [Compound 251] | 42.1 |
| Nc1ncnc2c1c(Oc1cc(C(F)(F)F)ccn1)nn2C1CCCC1 [Compound 257] | 23.4 |
| Nc1ncnc2c1c(Oc1cc(C(F)(F)F)ccn1)nn2[C@@H]1CCCC[C@H]1O [191 (R,R)] | 8.4 |
| N#Cc1ccnc(Oc2nn([C@H]3CC[C@@H](C(F)(F)F)CC3)c3ncnc(N)c23)c1 [Compound 207] | 23.7 |

| Structure (SMILES) | IC50 [nM] |
| --- | --- |
| N#Cc1cccc(Cc2nn([C@H]3C[C@H](F)C3)c3ncnc(N)c23)c1 [Compound 172] | 45.9 |
| Nc1ncnc2c1c(Oc1cc(C(F)(F)F)ccn1)nn2C1CCCCC1=O (stereo not drawn) [Compound 289] | 98.5 |
| Nc1ncnc2c1c(Oc1cc(Cl)ccn1)nn2C1CCC(F)(F)CC1 [Compound 261] | 35.3 |
| Nc1ncnc2c1c(Oc1cc(C(F)(F)F)ccn1)nn2[C@H]1CC[C@@H](O)CC1 [Compound 231] | 18.6 |
| CC(C)(C)n1nc(Oc2cc(C#N)ccn2)c2c(N)ncnc21 [Compound 259] | 18.1 |
| Nc1ncnc2c1c(Oc1cc(C(F)(F)F)ccn1)nn2C1CCCNC1 (stereo not drawn) [Compound 195] | 56.8 |
| Nc1ncnc2c1c(Oc1cc(C(F)(F)F)ccn1)nn2C1CNCC(F)(F)C1 (stereo not drawn) [Compound 190] | ~54 |
| N#Cc1ccnc(Oc2nn([C@H]3CC[C@H](C(F)(F)F)CC3)c3ncnc(N)c23)c1 [Compound 209] | 26 |
| Nc1ncnc2c1c(Oc1cc(Cl)ccn1)nn2[C@H]1C[C@@H](O)C1 [Compound 163] | 18 |
| Nc1ncnc2c1c(Oc1cc(C(F)(F)F)ccn1)nn2C1CCC(N)CC1 (stereo not drawn) [Compound 232] | 24.3 |
| Nc1ncnc2c1c(Oc1cc(Cl)ccn1)nn2C1CCCOC1 (stereo not drawn) [Compound 216] | 15.8 |
| Nc1ncnc2c1c(Oc1cc(C(F)(F)F)ccn1)nn2CC1(C(F)(F)F)CC1 [Compound 244] | 31 |
| Nc1ncnc2c1c(Oc1cc(C(F)(F)F)ccn1)nn2[C@H]1CCCC[C@@H]1O [191 (S,S)] | 125 |
| CC(C)(C)n1nc(Oc2cc(O)ccn2)c2c(N)ncnc21 [Compound 264] | 13.9 |
| NC(=O)c1ccnc(Oc2nn(C3CCCC3)c3ncnc(N)c23)c1 [Compound 204] | 67 |
| CC(C)(C)OC(=O)N1CCCC(n2nc(Oc3cc(Cl)ccn3)c3c(N)ncnc32)C1 (stereo not drawn) [Compound 224] | 43.7 |
| CC(C)(CO)Cn1nc(Oc2cccc(Cl)c2)c2c(N)ncnc21 [Compound 265] | 47.9 |
| Nc1ncnc2c1c(Cc1cccc(F)c1)cn2[C@H]1C[C@H](O)C1 [Compound 164] | 28.3 |
| Nc1ncnc2c1c(Oc1cc(C(F)(F)F)ccn1)nn2C1(C(=O)O)CCC1 [Compound 288] | 11900 |
| CC(=O)Oc1ccnc(Oc2nn(C3CCC(F)(F)CC3)c3ncnc(N)c23)c1 [Compound 277] | 21.5 |
| Nc1ncnc2c1c(Oc1cc(C(F)(F)F)ccn1)nn2CC1CCNCC1(F)F (stereo not drawn) [Compound 197] | 13.8 |
| NC(=O)c1ccnc(Oc2nn([C@H]3C[C@H](F)C3)c3ncnc(N)c23)c1 [Compound 174] | 69.7 |
| C=CC(O)Cn1nc(Oc2cc(C(F)(F)F)ccn2)c2c(N)ncnc21 (stereo not drawn) [Compound 268] | 11.7 |
| COc1ccnc(Oc2nn(C3CCOCC3)c3ncnc(N)c23)c1 [Compound 220] | 54.4 |
| Nc1ncnc2c1c(Oc1cc(C(F)(F)F)ccn1)nn2CC(F)(F)F [Compound 280] | 38.6 |
